In US20060251702A1, “Implantable materials and methods for inhibiting tissue adhesion formation” (Cook Biotech Incorporated, priority 2005, published 2006):
Values joined by “and” are separate entries in the source; they are usually repeats but may differ in a detail not shown here. Equal values may be shown once. Read-outs that look alike come from different tables or passages of the source.

Tested on: post-surgical adhesions on the traumatized cecal surface
Type: in vivo
Conditions: score of one rat, 21 days
Method: The samples were then removed from solution, frozen at −80° C. overnight, relyophilized, and sterilized with ethylene oxide.
Forty-nine 250-300 gram Sprague-Dawley rats were anesthetized with an IM dose of ketamine and xylazine and prepared for aseptic abdominal surgery. […] The adjacent wall of the peritoneal cavity was mildly abraded with the same nylon brush and the cecum was either placed back into the abdominal cavity, covered with biomaterial, which was anchored to the abdominal cavity by suturing it to mesenchymal fat, or injected with a solution and placed back into the abdominal cavity.
Following cecal abrasion, groups of rats received one of the following 8 treatments: • Treatment 1: (Control) No biomaterials were implanted following cecal injury. […] Care was taken to avoid perforating the bowel N=6 rats. • Treatment 3: (PPM) a piece of polypropylene mesh (Bard) was placed over the abraded surface and secured with non-absorbable nylon suture. […] N=6 rats. • Treatment 8: […] DMSO was delivered to the peritoneal cavity prior to closure. N=6 rats.
Following placement of the cecum back into the abdominal cavity, the abdominal wall was closed with 4-0 silk and the skin closed with surgical staples.

[1] = IP high dose: 2.0 mg nimesulide in 1.0 mL DMSO to the peritoneal cavity
[2] = IP low dose: 0.5 mg nimesulide in 1.0 mL DMSO to the peritoneal cavity

For `CS(=O)(=O)Nc1ccc([N+](=O)[O-])cc1Oc1ccccc1` [nimesulide], the “Extent (of adhesions, score)” value [1] was 1 (1=adhesions on 25% of the traumatized cecal surface) (3×) and 0, the “Tenacity (of adhesions, score)” value [1] was 2 (2×) and 1 and 0 and the “Extent (of adhesions, score)” value [2] was 2 (2=adhesions on 50% of the traumatized cecal surface). The “Tenacity (of adhesions, score)” value [2] was 2.
